Assays:
[1] = Anticancer activity, SRB assay, non-small cell lung panel; format: cell-based, human; details: Homo sapiens; nine non-small cell lung cancer cell lines; exposure period of at least 48 h; read-out: GI50 (range over the panel)
Description: (§1) Some of biological activity studies were carried out at the National Cancer Institute (NCI), Maryland, USA.
(§2) The compounds were evaluated for anticancer activity against sixty human cancer cells derived from nine cancer types (leukemia cell line, non-small-cell lung cell line, colon cell line, CNS cell line, melanoma cell line, ovarian cell line, prostate cell line, renal cell line and breast cancer cell line) as shown in Table 1. For each compound, dose response curves for each cell line were measured at a minimum of five concentrations at 10 fold dilutions. A protocol of 48 h continuous drug exposure was used and a sulforhodamine B (SRB) protein assay was used to estimate cell viability or growth.

[2] = tested on: nine non-small cell lung cancer cell lines (A549/ATCC, EKVX, HOP-62, HOP-92, NCI-H226, NCI-H23, NCI-H322M, NCI-H460 and NCI-H522); test: as above; format: cell-based, human; details: Non-small cell lung; for mean graph midpoint values (MG_MID) of log10 TGI (Log10TGI50): log value of concentration of the compound resulting in total inhibition of net cell growth; for mean graph midpoint values (MG_MID) of Log10LC50: log value of the concentration of compounds leading to 50% net cell death; for mean graph midpoint values (MG_MID) of Log10GI50: log values of concentration in mol/L causing 50% inhibition of net cell growth
Description: as §1, §2

[3] = tested on: RPMI-8226; test: Anticancer activity, SRB assay, leukemia cell line RPMI-8226; format: cell-based; details: Homo sapiens; Leukemia RPMI-8226; 48 h continuous drug exposure; read-out: Growth Inhibition GI50
Description: as §1, §2

[4] = tested on: M14; test: Anticancer activity, SRB assay, melanoma cell line M14; format: cell-based; details: Homo sapiens, 48 h continuous drug exposure, read-out: Growth Inhibition GI50
Description: as §1, §2

[5] = tested on: SF-539; test: Anticancer activity, SRB assay, CNS cell line SF-539; format: cell-based, human; details: CNS SF-539, 48 h continuous drug exposure, —^b means GI50 values not attained at the concentrations used
Description: as §1, §2

[6] = tested on: seven ovarian cancer cell lines (IGROV1, OVCAR-3, OVCAR-4, OVCAR-5, OVCAR-8, NCI/ADR-RES and SK-OV-3); test: Anticancer activity, SRB assay, ovarian panel; format: cell-based, human; details: for GI50: Homo sapiens, seven ovarian cancer cell lines, exposure period of at least 48 h, read-out: GI50 (range over the panel); for mean graph midpoint values (MG_MID) of log10 TGI (Log10TGI50) / mean graph midpoint values (MG_MID) of Log10LC50 / mean graph midpoint values (MG_MID) of Log10GI50: Ovarian; for mean graph midpoint values (MG_MID) of log10 TGI (Log10TGI50): log value of concentration of the compound resulting in total inhibition of net cell growth; for mean graph midpoint values (MG_MID) of Log10LC50: log value of the concentration of compounds leading to 50% net cell death; for mean graph midpoint values (MG_MID) of Log10GI50: log values of concentration in mol/L causing 50% inhibition of net cell growth
Description: as §1, §2

[7] = tested on: UO-31; test: Anticancer activity, SRB assay, renal cell line UO-31; format: cell-based, human; details: Renal UO-31, 48 h continuous drug exposure, —^b means GI50 values not attained at the concentrations used
Description: as §1, §2

[8] = tested on: HOP-62; test: Anticancer activity, SRB assay, non-small lung cell line HOP-62; format: cell-based, human; details: Non-small lung HOP-62, 48 h continuous drug exposure, —^b means GI50 values not attained at the concentrations used
Description: as §1, §2

[9] = tested on: SF-268; test: Anticancer activity, SRB assay, CNS cell line SF-268; format: cell-based, human; details: CNS SF-268, 48 h continuous drug exposure, —^b means GI50 values not attained at the concentrations used
Description: as §1, §2

[10] = tested on: six leukemia cancer cell lines (CCRF-CEM, HL-60, K-562, MOLT-4, SR and RPMI-8226); test: Anticancer activity, SRB assay, leukemia panel; format: cell-based, human; details: for GI50: Homo sapiens, six leukemia cancer cell lines, exposure period of at least 48 h, read-out: GI50 (range over the panel); for mean graph midpoint values (MG_MID) of log10 TGI (Log10TGI50) / mean graph midpoint values (MG_MID) of Log10LC50 / mean graph midpoint values (MG_MID) of Log10GI50: Leukemia; for mean graph midpoint values (MG_MID) of log10 TGI (Log10TGI50): log value of concentration of the compound resulting in total inhibition of net cell growth; for mean graph midpoint values (MG_MID) of Log10LC50: log value of the concentration of compounds leading to 50% net cell death; for mean graph midpoint values (MG_MID) of Log10GI50: log values of concentration in mol/L causing 50% inhibition of net cell growth
Description: as §1, §2

[11] = tested on: SNB-19; test: Anticancer activity, SRB assay, CNS cell line SNB-19; format: cell-based, human; details: CNS SNB-19, 48 h continuous drug exposure, —^b means GI50 values not attained at the concentrations used
Description: as §1, §2

[12] = tested on: SK-MEL-28; test: Anticancer activity, SRB assay, melanoma cell line SK-MEL-28; format: cell-based, human; details: Melanoma SK-MEL-28, 48 h continuous drug exposure, —^b means GI50 values not attained at the concentrations used
Description: as §1, §2

[13] = tested on: ACHN; test: Anticancer activity, SRB assay, renal cell line ACHN; format: cell-based, human; details: 48 h continuous drug exposure, —^b means GI50 values not attained at the concentrations used
Description: as §1, §2

[14] = tested on: UACC-257; test: Anticancer activity, SRB assay, melanoma cell line UACC-257; format: cell-based; details: Homo sapiens; Melanoma UACC-257; 48 h continuous drug exposure; read-out: Growth Inhibition GI50
Description: as §1, §2

[15] = tested on: MALME-3M; test: Anticancer activity, SRB assay, melanoma cell line MALME-3M; format: cell-based; details: Homo sapiens; Melanoma MALME-3M; 48 h continuous drug exposure; read-out: Growth Inhibition GI50
Description: as §1, §2

[16] = tested on: PC-3; test: Anticancer activity, SRB assay, prostate cell line PC-3; format: cell-based, human; details: Prostate PC-3, 48 h continuous drug exposure, —^b means GI50 values not attained at the concentrations used
Description: as §1, §2

[17] = tested on: K-562; test: Anticancer activity, SRB assay, leukemia cell line K-562; format: cell-based; details: Homo sapiens, K562; Leukemia K-562; 48 h continuous drug exposure; read-out: Growth Inhibition GI50
Description: as §1, §2

[18] = tested on: SN12C; test: Anticancer activity, SRB assay, renal cell line SN12C; format: cell-based, human; details: 48 h continuous drug exposure, —^b means GI50 values not attained at the concentrations used
Description: as §1, §2

[19] = tested on: HL-60(TB); test: Anticancer activity, SRB assay, leukemia cell line HL-60(TB); format: cell-based; details: Homo sapiens; Leukemia HL-60(TB); 48 h continuous drug exposure; read-out: Growth Inhibition GI50
Description: as §1, §2

[20] = tested on: MDA-MB-468; test: Anticancer activity, SRB assay, breast cell line MDA-MB-468; format: cell-based; details: Homo sapiens; Breast MDA-MB-468; 48 h continuous drug exposure; read-out: Growth Inhibition GI50
Description: as §1, §2

[21] = tested on: HCT-116; test: Anticancer activity, SRB assay, colon cell line HCT-116; format: cell-based; details: Homo sapiens; Colon HCT-116; 48 h continuous drug exposure; read-out: Growth Inhibition GI50
Description: as §1, §2

[22] = tested on: LOX IMVI; test: Anticancer activity, SRB assay, melanoma cell line LOX IMVI; format: cell-based; details: Homo sapiens, 48 h continuous drug exposure, read-out: Growth Inhibition GI50
Description: as §1, §2

[23] = tested on: SW-620; test: Anticancer activity, SRB assay, colon cell line SW-620; format: cell-based; details: Homo sapiens; Colon SW-620; 48 h continuous drug exposure; read-out: Growth Inhibition GI50
Description: as §1, §2

[24] = tested on: two prostate cancer cell line (PC-3, DU-145); test: Anticancer activity, SRB assay, prostate panel; format: cell-based, human; details: for mean graph midpoint values (MG_MID) of log10 TGI (Log10TGI50) / mean graph midpoint values (MG_MID) of Log10LC50 / mean graph midpoint values (MG_MID) of Log10GI50: Prostate; for mean graph midpoint values (MG_MID) of log10 TGI (Log10TGI50): log value of concentration of the compound resulting in total inhibition of net cell growth; for mean graph midpoint values (MG_MID) of Log10LC50: log value of the concentration of compounds leading to 50% net cell death; for mean graph midpoint values (MG_MID) of Log10GI50: log values of concentration in mol/L causing 50% inhibition of net cell growth
Description: as §1, §2

[25] = tested on: MDA-MB-435; test: Anticancer activity, SRB assay, melanoma cell line MDA-MB-435; format: cell-based, human; details: Melanoma MDA-MB-435, 48 h continuous drug exposure, —^b means GI50 values not attained at the concentrations used
Description: as §1, §2

[26] = tested on: SNB-75; test: Anticancer activity, SRB assay, CNS cell line SNB-75; format: cell-based, human; details: CNS SNB-75, 48 h continuous drug exposure, —^b means GI50 values not attained at the concentrations used
Description: as §1, §2

[27] = Homo sapiens, read-out: Growth Inhibition GI50

Structure (SMILES) | GI50 [1] [nM] | mean graph midpoint values (MG_MID) of log10 TGI (Log10TGI50) [2] | mean graph midpoint values (MG_MID) of Log10LC50 [2] | mean graph midpoint values (MG_MID) of Log10GI50 [2] [mol/L] | GI50 [3] [nM] | GI50 [4] [µM] | GI50 [6] [µM] | mean graph midpoint values (MG_MID) of log10 TGI (Log10TGI50) [6] | mean graph midpoint values (MG_MID) of Log10LC50 [6] | mean graph midpoint values (MG_MID) of Log10GI50 [6] [mol/L] | GI50 [10] [nM] | mean graph midpoint values (MG_MID) of log10 TGI (Log10TGI50) [10] | mean graph midpoint values (MG_MID) of Log10LC50 [10] | mean graph midpoint values (MG_MID) of Log10GI50 [10] [mol/L] | GI50 [14] [µM] | GI50 [15] [µM] | GI50 [17] [nM] | GI50 [19] [nM] | GI50 [20] [nM] | GI50 [21] [nM] | also measured
Cc1cc(C#Cc2ccccc2)ccc1-n1c(/C=C/c2cc(O)ccc2O)nc2ccccc2c1=O [Compound 4c, (E)-2-(2,5-Dihydroxystyryl)-3-(2-methyl-4-(phenylethynyl)phenyl)quinazolin-4(3H)-one] | 1240 to 1710 | −5.44 | −4.91 | −5.83 | 1260 | 1.54 | 1.39 to 2.45 | −5.31 | −4.61 | −5.72 | 634 to 1540 | −5.38 | −4.40 | −5.94 | 1.56 | 1.5 | 1420 | 634 | 1610 | 1460 | GI50 [5, 27]: 1600 nM; GI50 [7, 27]: 1160 nM; GI50 [8, 27]: 1710 nM; GI50 [9, 27]: 1310 nM; GI50 [11, 27]: 1620 nM; GI50 [12, 27]: 1530 nM; GI50 [13, 27]: 1440 nM; GI50 [16, 27]: 2190 nM; GI50 [18, 27]: 1620 nM; GI50 [22]: 1.37 µM; GI50 [23]: 1.71 µM; GI50 ([24]; Homo sapiens, DU-145, two prostate cancer cell line, exposure period of at least 48 h, read-out: GI50 (range over the panel)): 419 to 2190 nM; mean graph midpoint values (MG_MID) of log10 TGI (Log10TGI50) [24]: −5.43; mean graph midpoint values (MG_MID) of Log10LC50 [24]: −4.68; mean graph midpoint values (MG_MID) of Log10GI50 [24]: −6.17 mol/L; GI50 [25, 27]: 1670 nM; GI50 [26, 27]: 1300 nM
COc1ccc2cc(C#Cc3ccc(-n4c(/C=C/c5cc(OC)c(OC)c(OC)c5)nc5ccccc5c4=O)c(C)c3)ccc2c1 [Compound 6l, (E)-3-(4-((6-Methoxynaphthalen-2-yl)ethynyl)-2-methylphenyl)-2-(3,4,5-trimethoxystyryl)quinazolin-4(3H)-one] | 2480 to 40500 | >−4.00 | >−4.00 | −4.32 | 821 | 12.7 | 19.3 | >−4.00 | >−4.00 | −4.10 | 395 to 4660 | >−4.00 | >−4.00 | −5.67 | 6.24 | 42.6 | 882 | 686 | 3800 | 3530 | Growth Inhibition GI50 [5]: —^b; Growth Inhibition GI50 [7]: —^b; Growth Inhibition GI50 [8]: —^b; Growth Inhibition GI50 [9]: —^b; Growth Inhibition GI50 [11]: —^b; Growth Inhibition GI50 [12]: —^b; Growth Inhibition GI50 [13]: —^b; Growth Inhibition GI50 [16]: —^b; Growth Inhibition GI50 [18]: —^b; GI50 [22]: 5.96 µM; GI50 [23]: 17.2 µM; mean graph midpoint values (MG_MID) of log10 TGI (Log10TGI50) [24]: >−4.00; mean graph midpoint values (MG_MID) of Log10LC50 [24]: >−4.00; mean graph midpoint values (MG_MID) of Log10GI50 [24]: −4.00 mol/L; Growth Inhibition GI50 [25]: —^b; Growth Inhibition GI50 [26]: —^b

Source: patent publication US8680272B2, “3-arylethynyl substituted quinazolinone compounds” (Council of Scientific & Industrial Research, priority 2011, dated 2014)
